Calls of active or inactive are those of the source. Bounds are passed on as bounds.

Assay [1] addresses T1, Mitochondrial peptide methionine sulfoxide reductase (Bos taurus, UniProt P54149).
T1 sequence (P54149 whole entry): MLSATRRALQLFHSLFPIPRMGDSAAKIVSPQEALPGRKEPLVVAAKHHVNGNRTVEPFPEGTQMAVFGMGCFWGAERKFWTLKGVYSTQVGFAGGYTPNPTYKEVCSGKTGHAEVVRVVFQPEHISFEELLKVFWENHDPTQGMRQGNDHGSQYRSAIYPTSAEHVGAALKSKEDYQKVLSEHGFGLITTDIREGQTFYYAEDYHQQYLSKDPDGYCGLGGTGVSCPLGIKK
In words: Absorbance-based biochemical high throughput dose response assay for activators of Methionine sulfoxide reductase A (MsrA). Type of assay: functional.

The target of assay [2] is T2, Sentrin-specific protease 7 (Homo sapiens, UniProt Q9BQF6).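 Note: Luminescence-based dose-response confirmation of ultra-high-throughput screening hits, measuring inhibition of SENP7.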
T2 sequence (Q9BQF6 whole entry): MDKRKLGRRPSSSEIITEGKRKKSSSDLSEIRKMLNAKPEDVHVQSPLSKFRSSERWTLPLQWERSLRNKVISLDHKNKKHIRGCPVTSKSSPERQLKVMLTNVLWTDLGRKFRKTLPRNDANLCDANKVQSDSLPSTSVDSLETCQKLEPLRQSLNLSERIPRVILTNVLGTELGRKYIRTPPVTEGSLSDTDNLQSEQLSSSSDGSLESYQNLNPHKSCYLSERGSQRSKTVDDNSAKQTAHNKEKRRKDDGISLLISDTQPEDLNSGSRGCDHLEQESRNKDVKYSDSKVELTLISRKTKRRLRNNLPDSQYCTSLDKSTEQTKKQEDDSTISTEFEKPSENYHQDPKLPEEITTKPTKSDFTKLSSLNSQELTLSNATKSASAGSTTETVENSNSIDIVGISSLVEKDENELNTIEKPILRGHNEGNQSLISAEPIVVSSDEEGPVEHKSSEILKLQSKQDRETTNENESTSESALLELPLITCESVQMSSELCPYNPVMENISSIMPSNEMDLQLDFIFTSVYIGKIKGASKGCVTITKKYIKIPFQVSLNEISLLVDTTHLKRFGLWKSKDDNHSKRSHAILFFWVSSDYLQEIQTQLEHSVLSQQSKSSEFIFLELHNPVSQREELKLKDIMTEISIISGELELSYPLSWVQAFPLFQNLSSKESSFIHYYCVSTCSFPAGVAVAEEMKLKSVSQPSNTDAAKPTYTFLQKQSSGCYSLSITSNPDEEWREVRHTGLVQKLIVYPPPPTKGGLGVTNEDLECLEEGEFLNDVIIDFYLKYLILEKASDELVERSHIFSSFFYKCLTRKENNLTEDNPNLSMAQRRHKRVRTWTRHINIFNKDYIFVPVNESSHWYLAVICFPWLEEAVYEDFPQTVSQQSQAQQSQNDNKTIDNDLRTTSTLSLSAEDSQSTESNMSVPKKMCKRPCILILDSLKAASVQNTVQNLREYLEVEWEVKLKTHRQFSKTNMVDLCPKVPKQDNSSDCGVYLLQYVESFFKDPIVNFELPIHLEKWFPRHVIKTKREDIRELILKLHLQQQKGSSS
Type of assay: functional.

The nature of assay [3]: cells. Type of assay: functional.
Assay [4] addresses T3, Tyrosyl-DNA phosphodiesterase 2 (Homo sapiens, UniProt O95551).
T3 sequence (O95551 whole entry): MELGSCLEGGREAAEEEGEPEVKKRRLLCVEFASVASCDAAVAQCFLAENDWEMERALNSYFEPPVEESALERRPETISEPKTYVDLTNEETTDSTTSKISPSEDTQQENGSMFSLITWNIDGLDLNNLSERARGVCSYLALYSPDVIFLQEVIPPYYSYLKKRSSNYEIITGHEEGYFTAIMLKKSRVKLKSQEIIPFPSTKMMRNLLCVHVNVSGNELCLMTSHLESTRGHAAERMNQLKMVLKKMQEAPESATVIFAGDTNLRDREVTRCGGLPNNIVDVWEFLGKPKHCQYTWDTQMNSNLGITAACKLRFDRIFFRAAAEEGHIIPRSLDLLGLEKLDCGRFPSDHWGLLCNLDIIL
In words: human TDP2 enzyme inhibitors, dose response, biochemical, epi absorbance, IC50 (AID 743297).

Assay [5] can be described thus: growth suppression of beta-catenin-knockout colon cells, dose response, cell-based, HCT116, human colon tumor (AID 1045).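 Note: HCT116 colon tumor cells with beta catenin knocked out; cells exposed to compound for 60 hours.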 Type of assay: functional.
Assay [6] in a line: growth suppression of PTEN-null colon cells, dose response, cell-based, HCT116 PTEN knockout (AID 1047).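 Note: HCT116 colon tumor cells with PTEN knocked out; cells exposed to compound for 60 hours before readout; potency for loss of cell viability measured by luminescence.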 The class given is functional.
Assay [7] is described as follows: Luminescence-based cell-based high throughput dose response assay to identify activators of the DAF-12 from the parasite S. stercoralis (ssDAF-12). The class given is functional.
The target in assay [8] is Tyrosine-protein kinase Blk (Homo sapiens, UniProt P51451). The class given is functional.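 Note: obtained as one member of a kinome-wide kinase assay panel.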
Assay [9] deals with Homeodomain-interacting protein kinase 4 (Homo sapiens, UniProt Q8NE63). The class given is functional.
Chain of Homeodomain-interacting protein kinase 4 (Q8NE63 whole entry): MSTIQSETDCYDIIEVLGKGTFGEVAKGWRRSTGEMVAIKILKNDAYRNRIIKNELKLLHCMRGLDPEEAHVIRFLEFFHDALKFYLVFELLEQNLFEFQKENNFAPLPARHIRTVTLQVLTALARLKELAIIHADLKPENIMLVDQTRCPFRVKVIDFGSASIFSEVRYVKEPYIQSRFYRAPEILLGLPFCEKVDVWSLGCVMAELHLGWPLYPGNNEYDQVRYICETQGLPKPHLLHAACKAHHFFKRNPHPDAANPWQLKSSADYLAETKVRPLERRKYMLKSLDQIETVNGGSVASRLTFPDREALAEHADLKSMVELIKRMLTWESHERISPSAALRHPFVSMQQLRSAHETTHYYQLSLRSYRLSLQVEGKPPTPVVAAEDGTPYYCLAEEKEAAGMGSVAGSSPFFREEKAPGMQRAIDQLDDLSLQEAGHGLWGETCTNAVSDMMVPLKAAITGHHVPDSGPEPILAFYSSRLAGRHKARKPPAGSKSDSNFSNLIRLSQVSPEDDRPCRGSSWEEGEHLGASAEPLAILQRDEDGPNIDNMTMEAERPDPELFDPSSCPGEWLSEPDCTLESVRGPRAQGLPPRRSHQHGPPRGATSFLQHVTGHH
The target of assay [10] is Rho-associated protein kinase 2 (Homo sapiens, UniProt O75116). The class given is functional.
Assay [11] deals with Serine/threonine-protein kinase Nek4 (Homo sapiens, UniProt P51957). Type of assay: functional.
Chain of Serine/threonine-protein kinase Nek4 (P51957 whole entry): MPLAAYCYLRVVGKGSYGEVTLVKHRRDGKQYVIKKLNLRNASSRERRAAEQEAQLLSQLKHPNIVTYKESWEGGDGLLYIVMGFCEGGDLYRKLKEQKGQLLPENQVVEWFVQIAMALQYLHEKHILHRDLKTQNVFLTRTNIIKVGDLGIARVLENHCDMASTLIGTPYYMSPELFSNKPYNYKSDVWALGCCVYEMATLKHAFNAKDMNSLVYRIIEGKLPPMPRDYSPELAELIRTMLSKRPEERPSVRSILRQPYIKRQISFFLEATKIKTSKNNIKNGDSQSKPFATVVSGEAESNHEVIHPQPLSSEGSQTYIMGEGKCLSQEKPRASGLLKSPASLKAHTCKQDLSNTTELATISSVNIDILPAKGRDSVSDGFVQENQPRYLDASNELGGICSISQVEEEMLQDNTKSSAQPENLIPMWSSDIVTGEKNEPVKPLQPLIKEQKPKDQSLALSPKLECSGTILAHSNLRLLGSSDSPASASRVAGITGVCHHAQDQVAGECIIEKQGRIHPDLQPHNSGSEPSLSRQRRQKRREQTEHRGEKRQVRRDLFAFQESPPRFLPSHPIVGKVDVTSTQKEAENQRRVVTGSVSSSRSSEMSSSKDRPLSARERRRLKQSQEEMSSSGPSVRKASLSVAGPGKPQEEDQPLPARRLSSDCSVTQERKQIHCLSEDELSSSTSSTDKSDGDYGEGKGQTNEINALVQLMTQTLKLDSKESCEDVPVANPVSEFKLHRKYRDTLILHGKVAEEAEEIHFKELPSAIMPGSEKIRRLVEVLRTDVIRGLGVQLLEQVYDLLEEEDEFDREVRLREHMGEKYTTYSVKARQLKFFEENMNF
Assay [12] deals with Tyrosine-protein kinase receptor UFO (Homo sapiens, UniProt P30530). The class given is functional.
Assay [13] has as its target Calcium/calmodulin-dependent protein kinase type 1 (Homo sapiens, UniProt Q14012). Type of assay: functional.
For assay [14], the target named is Tyrosine-protein kinase ITK/TSK (Homo sapiens, UniProt Q08881). Type of assay: functional.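 Note: affinity for ITK measured as one member of a broad kinase panel profiling binding across the kinome.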
Assay [15] addresses Serine/threonine-protein kinase D3 (Homo sapiens, UniProt O94806). Type of assay: functional.
Assay [16] addresses Vascular endothelial growth factor receptor 2 (Homo sapiens, UniProt P35968). The class given is functional.
In assay [17] the target is Macrophage colony-stimulating factor 1 receptor (Homo sapiens, UniProt P07333). Type of assay: functional.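 Note: value comes from the Navigating the Kinome screening panel, CSF1R member.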
Chain of Macrophage colony-stimulating factor 1 receptor (P07333 whole entry): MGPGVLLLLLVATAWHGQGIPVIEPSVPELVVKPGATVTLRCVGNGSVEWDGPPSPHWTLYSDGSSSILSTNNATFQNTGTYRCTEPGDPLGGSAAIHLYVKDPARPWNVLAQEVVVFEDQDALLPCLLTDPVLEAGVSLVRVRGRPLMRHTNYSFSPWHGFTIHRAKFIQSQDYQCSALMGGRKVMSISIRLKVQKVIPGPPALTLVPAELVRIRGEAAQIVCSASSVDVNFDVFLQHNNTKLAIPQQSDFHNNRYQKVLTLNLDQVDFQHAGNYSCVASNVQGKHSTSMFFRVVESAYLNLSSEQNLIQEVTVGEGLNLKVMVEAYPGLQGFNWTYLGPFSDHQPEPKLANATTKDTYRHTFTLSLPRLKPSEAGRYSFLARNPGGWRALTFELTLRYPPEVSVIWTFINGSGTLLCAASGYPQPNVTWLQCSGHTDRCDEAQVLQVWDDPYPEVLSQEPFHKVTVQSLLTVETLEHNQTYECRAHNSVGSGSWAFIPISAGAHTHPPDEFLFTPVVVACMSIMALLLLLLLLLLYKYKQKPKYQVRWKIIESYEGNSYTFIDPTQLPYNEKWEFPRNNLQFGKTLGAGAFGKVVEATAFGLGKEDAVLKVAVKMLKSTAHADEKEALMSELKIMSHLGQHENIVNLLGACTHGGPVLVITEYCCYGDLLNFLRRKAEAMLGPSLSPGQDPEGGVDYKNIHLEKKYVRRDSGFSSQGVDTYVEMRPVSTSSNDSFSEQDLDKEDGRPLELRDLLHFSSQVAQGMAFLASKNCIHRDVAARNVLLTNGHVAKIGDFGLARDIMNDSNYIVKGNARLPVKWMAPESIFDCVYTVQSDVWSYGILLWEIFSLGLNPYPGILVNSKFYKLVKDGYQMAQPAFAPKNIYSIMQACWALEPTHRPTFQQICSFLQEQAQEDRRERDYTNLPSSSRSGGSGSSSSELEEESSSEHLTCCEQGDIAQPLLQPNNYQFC
In assay [18] the target is Insulin-like growth factor 1 receptor (Homo sapiens, UniProt P08069). In words: Navigating the Kinome. Panel member name: IGF1R. Type of assay: functional.
Chain of Insulin-like growth factor 1 receptor (P08069 31-736 limits assumed): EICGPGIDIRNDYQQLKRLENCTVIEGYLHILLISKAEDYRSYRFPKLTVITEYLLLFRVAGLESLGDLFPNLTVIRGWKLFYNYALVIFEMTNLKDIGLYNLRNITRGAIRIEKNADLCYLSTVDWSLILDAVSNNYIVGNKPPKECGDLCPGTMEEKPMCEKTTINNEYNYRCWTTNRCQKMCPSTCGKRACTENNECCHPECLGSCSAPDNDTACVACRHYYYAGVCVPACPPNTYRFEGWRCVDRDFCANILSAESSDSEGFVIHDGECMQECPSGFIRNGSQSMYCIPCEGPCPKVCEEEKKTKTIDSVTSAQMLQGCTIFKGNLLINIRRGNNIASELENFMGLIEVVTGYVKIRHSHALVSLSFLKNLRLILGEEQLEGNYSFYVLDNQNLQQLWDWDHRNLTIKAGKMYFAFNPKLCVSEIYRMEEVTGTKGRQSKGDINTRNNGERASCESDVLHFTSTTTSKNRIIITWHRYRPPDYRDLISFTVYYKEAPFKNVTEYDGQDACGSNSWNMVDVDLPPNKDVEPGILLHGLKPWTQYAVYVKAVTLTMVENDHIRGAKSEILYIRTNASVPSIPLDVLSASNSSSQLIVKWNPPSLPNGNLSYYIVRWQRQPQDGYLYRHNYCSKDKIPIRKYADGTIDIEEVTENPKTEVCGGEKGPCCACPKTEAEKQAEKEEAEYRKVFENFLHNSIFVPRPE
Chain of Insulin-like growth factor 1 receptor (P08069 741-1367 limits assumed): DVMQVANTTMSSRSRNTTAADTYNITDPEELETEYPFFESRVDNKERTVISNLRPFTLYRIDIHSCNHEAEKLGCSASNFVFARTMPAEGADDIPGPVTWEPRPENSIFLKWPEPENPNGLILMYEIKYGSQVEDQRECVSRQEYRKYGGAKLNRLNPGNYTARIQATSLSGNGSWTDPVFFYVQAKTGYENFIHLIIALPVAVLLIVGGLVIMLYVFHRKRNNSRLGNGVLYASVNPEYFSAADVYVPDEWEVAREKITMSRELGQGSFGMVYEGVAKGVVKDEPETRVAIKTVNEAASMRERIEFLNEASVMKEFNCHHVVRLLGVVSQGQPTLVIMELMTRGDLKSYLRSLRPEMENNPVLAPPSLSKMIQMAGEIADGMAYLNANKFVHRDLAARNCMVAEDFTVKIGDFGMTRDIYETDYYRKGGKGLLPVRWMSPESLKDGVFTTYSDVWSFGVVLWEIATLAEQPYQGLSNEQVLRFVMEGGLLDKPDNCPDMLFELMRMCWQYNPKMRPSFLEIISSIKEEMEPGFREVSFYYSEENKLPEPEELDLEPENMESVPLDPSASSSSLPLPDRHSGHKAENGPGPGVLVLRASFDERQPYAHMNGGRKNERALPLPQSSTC
In assay [19] the target is cGMP-dependent protein kinase 1 (Homo sapiens, UniProt Q13976). Type of assay: functional.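 Note: value from a kinome panel screen with PRKG1 as the panel member.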
Chain of cGMP-dependent protein kinase 1 (Q13976 whole entry): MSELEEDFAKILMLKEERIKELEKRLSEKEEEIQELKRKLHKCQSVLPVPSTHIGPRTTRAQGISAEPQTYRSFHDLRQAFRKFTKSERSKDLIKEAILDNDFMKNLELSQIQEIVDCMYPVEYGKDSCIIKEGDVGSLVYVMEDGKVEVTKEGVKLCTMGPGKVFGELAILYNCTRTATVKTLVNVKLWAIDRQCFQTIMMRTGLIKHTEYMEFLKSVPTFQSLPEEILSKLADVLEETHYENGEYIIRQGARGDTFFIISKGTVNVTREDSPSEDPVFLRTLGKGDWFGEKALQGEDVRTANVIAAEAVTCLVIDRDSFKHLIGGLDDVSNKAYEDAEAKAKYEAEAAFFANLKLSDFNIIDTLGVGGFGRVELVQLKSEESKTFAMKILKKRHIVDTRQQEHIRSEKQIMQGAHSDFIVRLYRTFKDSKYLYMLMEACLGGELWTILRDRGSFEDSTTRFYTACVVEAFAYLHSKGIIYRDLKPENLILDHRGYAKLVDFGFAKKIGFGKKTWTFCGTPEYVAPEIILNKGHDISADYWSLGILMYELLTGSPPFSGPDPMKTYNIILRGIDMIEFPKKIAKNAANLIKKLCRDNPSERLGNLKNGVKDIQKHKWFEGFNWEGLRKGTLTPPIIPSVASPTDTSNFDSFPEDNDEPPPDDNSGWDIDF
The target of assay [20] is Mitogen-activated protein kinase kinase kinase kinase 4 (Homo sapiens, UniProt O95819). The class given is functional.
For assay [21], the target named is Delta-type opioid receptor (Homo sapiens, UniProt P41143). In words: HTS Image-Based Screen for Agonists of the DOR Receptor. [Related pubchem assays (depositor defined):AID1777, AID1786, AID2133]. Type of assay: functional.
Chain of Delta-type opioid receptor (P41143 whole entry): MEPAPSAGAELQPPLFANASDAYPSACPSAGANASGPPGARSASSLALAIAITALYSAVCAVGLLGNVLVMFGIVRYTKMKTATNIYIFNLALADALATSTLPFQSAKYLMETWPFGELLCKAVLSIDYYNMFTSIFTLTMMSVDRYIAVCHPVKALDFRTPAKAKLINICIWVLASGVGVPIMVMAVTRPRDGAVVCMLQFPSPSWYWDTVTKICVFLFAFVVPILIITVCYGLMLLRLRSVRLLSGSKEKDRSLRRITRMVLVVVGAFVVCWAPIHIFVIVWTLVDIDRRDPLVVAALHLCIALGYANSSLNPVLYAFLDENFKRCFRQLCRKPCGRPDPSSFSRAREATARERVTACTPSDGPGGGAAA

As usually defined, the EC50 is the concentration giving half of the maximal effect. Take `O=C1C(Cl)=C(NCc2cccnc2)C(=O)c2ccccc21`: in assay [1], the EC50 was > 104 µM (inactive).

As usually defined, the IC50 is the concentration that inhibits the measured activity by half. `Nc1ccc(Br)c2cccnc12`: the IC50 is 9.77 µM (active) in assay [2], > 50 µM (active) in assay [3] and 75.5 µM (inactive) in [4].

With `CN(C)c1ncc(C2=C(Cl)C(=O)C(N3CCCC3)=C(Cl)C2=O)s1`, the figures for the concentration for a half-maximal effect (EC50) in [5] and in assay [6] were 6.06 µM (active) and 5.41 µM (active), respectively.

Take `Cc1ccc(C(=O)c2c(C)oc3c2C(=O)C(=O)c2ccccc2-3)cc1`: in assay [2], the IC50 is 6.7 µM (active). Moreover, the 50% effective concentration (EC50) in [5] is 2.66 µM (active); in assay [6] it was 3.11 µM (active).

For the compound `Cc1cnc(NC(=O)c2sc3ccccc3c2Cl)s1`, the half-maximal inhibitory concentration (IC50) was 2.6 µM (active) in assay [2] and > 67.5 µM (inactive) in assay [7].

For `O=C1C(O)=C/C(=N\c2ccccc2O)c2ccccc21`, the IC50 in [2] was 5.84 µM (active); in [4], 37.7 µM (inactive). The EC50 in assay [1] was > 104 µM (inactive).

A word on the Ki: it is the equilibrium dissociation constant of an inhibitor or competing ligand from its target. With `O=C1NC(=S)SC1=C1C(=O)Nc2ccc(Br)cc21`, the Ki in [8] is > 1.58 µM (inactive); in assay [9], 0.631 µM (active); in assay [10], 0.794 µM (active); in [11] it was > 6.31 µM (inactive); in [12] it was > 2 µM (inactive); in assay [13] it was > 3.16 µM (inactive). Moreover, the Ki was > 1.58 µM (inactive) in assay [14]; > 10 µM (inactive) in [15]; > 7.94 µM (inactive) in assay [16]; > 2.51 µM (inactive) in [17]; > 2 µM (inactive) in [18]; > 2 µM (inactive) in assay [19]. Also, the inhibitory constant (Ki) in assay [20] was 0.631 µM (active).

Regarding `Cc1ccc(Nc2cc(C)nn2-c2nc(C)cc(O)n2)cc1`, the EC50 in [21] was > 32 µM (inactive).
